Laboratory results reported in PubChem BioAssay AID2060618 (Molecular Pharmacology Branch, DTP, NCI, 2025).

Test system: 454973-116-R2-J3-PDC spheroids, percent test/control viability
Test: Anticancer human tumor 454973-116-R2-J3-PDC patient-derived pancreatic carcinoma cell line growth inhibition [CLK]
Conditions: spheroids with HUVEC and MSC; for IC50: curve of first compound; for viability, T/C: stronger effect = lower value
In short: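 Multi-cell-type spheroids combined patient-derived tumor cells with HUVEC endothelial cells and human mesenchymal stem cells. Paired agents were dosed in half-log steps down from about clinical Cmax, or from 10 microM where Cmax was unknown.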

[1] = second compound 0.0316 µM, first compound 0.0316 µM
[2] = second compound 0.0316 µM, first compound 0.1 µM
[3] = second compound 0.0316 µM, first compound 0.316 µM
[4] = second compound 0.0316 µM, first compound 1 µM
[5] = second compound 0.0316 µM, first compound 3.16 µM
[6] = second compound 0.0316 µM, first compound 10 µM
[7] = second compound 0.1 µM, first compound 0.0316 µM
[8] = second compound 0.1 µM, first compound 0.1 µM
[9] = second compound 0.1 µM, first compound 0.316 µM
[10] = second compound 0.1 µM, first compound 1 µM
[11] = second compound 0.1 µM, first compound 3.16 µM
[12] = second compound 0.1 µM, first compound 10 µM
[13] = second compound 0.316 µM, first compound 0.0316 µM
[14] = second compound 0.316 µM, first compound 0.1 µM
[15] = second compound 0.316 µM, first compound 0.316 µM
[16] = second compound 0.316 µM, first compound 1 µM
[17] = second compound 0.316 µM, first compound 3.16 µM
[18] = second compound 0.316 µM, first compound 10 µM
[19] = second compound 1 µM, first compound 0.0316 µM
[20] = second compound 1 µM, first compound 0.1 µM
[21] = second compound 1 µM, first compound 0.316 µM
[22] = second compound 1 µM, first compound 1 µM
[23] = second compound 1 µM, first compound 3.16 µM
[24] = second compound 1 µM, first compound 10 µM
[25] = second compound 3.16 µM, first compound 0.0316 µM
[26] = second compound 3.16 µM, first compound 0.1 µM
[27] = second compound 3.16 µM, first compound 0.316 µM
[28] = second compound 3.16 µM, first compound 1 µM
[29] = second compound 3.16 µM, first compound 3.16 µM
[30] = second compound 3.16 µM, first compound 10 µM
[31] = second compound 10 µM, first compound 0.0316 µM
[32] = second compound 10 µM, first compound 0.1 µM
[33] = second compound 10 µM, first compound 0.316 µM
[34] = second compound 10 µM, first compound 1 µM
[35] = second compound 10 µM, first compound 3.16 µM
[36] = second compound 10 µM, first compound 10 µM
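Note: spheroids exposed to compounds for 7 days before readout.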

**Q.** Which results are given for `CC(=O)O[C@H]1C(=O)[C@@]2(C)[C@H]([C@H](OC(=O)c3ccccc3)[C@]3(O)C[C@H](OC(=O)[C@H](O)[C@@H](NC(=O)c4ccccc4)c4ccccc4)C(C)=C1C3(C)C)[C@]1(OC(C)=O)CO[C@@H]1C[C@@H]2O` + CNC(=O)c1ccc(Nc2nc(OC3CCCC3)c3c(-c4ccc5nc(C)oc5c4)c[nH]c3n2)c(OC)c1?
**A.** IC50 (second compound 0.0316 µM): < 31.6 nM; IC50 (second compound 0.1 µM): < 31.6 nM; IC50 (second compound 0.316 µM): < 31.6 nM; IC50 (second compound 1 µM): < 31.6 nM; IC50 (second compound 3.16 µM): < 31.6 nM; IC50 (second compound 10 µM): < 31.6 nM; viability, T/C [1]: 7.2%; viability, T/C [2]: 10.3%; viability, T/C [3]: 8.05%; viability, T/C [4]: 8.91%; viability, T/C [5]: 7.98%; viability, T/C [6]: 26.6%; viability, T/C [7]: 10.1%; viability, T/C [8]: 8.61%; viability, T/C [9]: 9.22%; viability, T/C [10]: 10.1%; viability, T/C [11]: 14.3%; viability, T/C [12]: 38%; viability, T/C [13]: 33.1%; viability, T/C [14]: 39.2%; viability, T/C [15]: 43.9%; viability, T/C [16]: 48.2%; viability, T/C [17]: 83%; viability, T/C [18]: 110%; viability, T/C [19]: 45.3%; viability, T/C [20]: 50.2%; viability, T/C [21]: 54.3%; viability, T/C [22]: 60.5%; viability, T/C [23]: 88.4%; viability, T/C [24]: 89.6%; viability, T/C [25]: 38.8%; viability, T/C [26]: 46.5%; viability, T/C [27]: 54.1%; viability, T/C [28]: 51.5%; viability, T/C [29]: 74.2%; viability, T/C [30]: 86.5%; viability, T/C [31]: 36.8%; viability, T/C [32]: 43.2%; viability, T/C [33]: 49.7%; viability, T/C [34]: 60.2%; viability, T/C [35]: 77.1%; viability, T/C [36]: 84.3%

**Q.** `COc1ccc([C@@H](O)c2cc(-c3ncnc4cc(N5CCOCC5)ccc34)c(F)cc2Cl)nn1` + CNC(=O)c1ccc(Nc2nc(OC3CCCC3)c3c(-c4ccc5nc(C)oc5c4)c[nH]c3n2)c(OC)c1 was tested. Which IC50 (second compound 0.0316 µM) did it give?
**A.** > 10000 nM

**Q.** And the IC50 (second compound 0.1 µM)?
**A.** > 10000 nM

**Q.** What about the IC50 (second compound 0.316 µM) of the same compound?
**A.** < 31.6 nM

**Q.** And the IC50 (second compound 1 µM)?
**A.** < 31.6 nM

**Q.** What about the IC50 (second compound 3.16 µM) of the same compound?
**A.** < 31.6 nM

**Q.** And the IC50 (second compound 10 µM)?
**A.** < 31.6 nM

**Q.** What about the viability, T/C [1] of the same compound?
**A.** 109%

**Q.** And the viability, T/C [2]?
**A.** 95.5%

**Q.** What about the viability, T/C [3] of the same compound?
**A.** 105%

**Q.** What about the viability, T/C [4] of the same compound?
**A.** 93%

**Q.** What about the viability, T/C [5] of the same compound?
**A.** 80.3%

**Q.** And the viability, T/C [6]?
**A.** 51.1%

**Q.** And the viability, T/C [7]?
**A.** 98.9%

**Q.** What about the viability, T/C [8] of the same compound?
**A.** 110%

**Q.** What about the viability, T/C [9] of the same compound?
**A.** 94.5%

**Q.** What about the viability, T/C [10] of the same compound?
**A.** 97.2%

**Q.** What about the viability, T/C [11] of the same compound?
**A.** 72.9%

**Q.** What about the viability, T/C [12] of the same compound?
**A.** 54.7%

**Q.** What about the viability, T/C [13] of the same compound?
**A.** 42.2%

**Q.** And the viability, T/C [14]?
**A.** 41.4%

**Q.** What about the viability, T/C [15] of the same compound?
**A.** 49.1%

**Q.** And the viability, T/C [16]?
**A.** 43.2%

**Q.** What about the viability, T/C [17] of the same compound?
**A.** 45.5%

**Q.** What about the viability, T/C [18] of the same compound?
**A.** 31.9%

**Q.** And the viability, T/C [19]?
**A.** 27.8%

**Q.** What about the viability, T/C [20] of the same compound?
**A.** 28%

**Q.** What about the viability, T/C [21] of the same compound?
**A.** 29.1%

**Q.** What about the viability, T/C [22] of the same compound?
**A.** 24.9%

**Q.** And the viability, T/C [23]?
**A.** 25.9%

**Q.** What about the viability, T/C [24] of the same compound?
**A.** 21.4%

**Q.** And the viability, T/C [25]?
**A.** 26.8%

**Q.** What about the viability, T/C [26] of the same compound?
**A.** 30.3%

**Q.** What about the viability, T/C [27] of the same compound?
**A.** 26.3%

**Q.** What about the viability, T/C [28] of the same compound?
**A.** 25.9%

**Q.** What about the viability, T/C [29] of the same compound?
**A.** 23.6%

**Q.** And the viability, T/C [30]?
**A.** 18.4%

**Q.** What about the viability, T/C [31] of the same compound?
**A.** 28.2%

**Q.** And the viability, T/C [32]?
**A.** 26.5%

**Q.** And the viability, T/C [33]?
**A.** 23.1%

**Q.** What about the viability, T/C [34] of the same compound?
**A.** 24.4%

**Q.** And the viability, T/C [35]?
**A.** 27.2%

**Q.** What about the viability, T/C [36] of the same compound?
**A.** 17.7%

**Q.** Which IC50 (second compound 0.0316 µM) does the source give for `COc1cccc2c1C(=O)c1c(O)c3c(c(O)c1C2=O)CC(O)(C(=O)CO)CC3OC1CC(N)C(O)C(C)O1` (stereo unspecified) + CNC(=O)c1ccc(Nc2nc(OC3CCCC3)c3c(-c4ccc5nc(C)oc5c4)c[nH]c3n2)c(OC)c1 here?
**A.** 31.6 nM

**Q.** And the IC50 (second compound 0.1 µM)?
**A.** < 31.6 nM

**Q.** What about the IC50 (second compound 0.316 µM) of the same compound?
**A.** < 31.6 nM

**Q.** And the IC50 (second compound 1 µM)?
**A.** < 31.6 nM

**Q.** And the IC50 (second compound 3.16 µM)?
**A.** < 31.6 nM

**Q.** What about the IC50 (second compound 10 µM) of the same compound?
**A.** < 31.6 nM

**Q.** What about the viability, T/C [1] of the same compound?
**A.** 51.4%

**Q.** What about the viability, T/C [2] of the same compound?
**A.** 23%

**Q.** What about the viability, T/C [3] of the same compound?
**A.** 21.7%

**Q.** What about the viability, T/C [4] of the same compound?
**A.** 6.66%

**Q.** And the viability, T/C [5]?
**A.** 1.89%

**Q.** What about the viability, T/C [6] of the same compound?
**A.** 1.95%

**Q.** What about the viability, T/C [7] of the same compound?
**A.** 46.4%

**Q.** And the viability, T/C [8]?
**A.** 26.4%

**Q.** What about the viability, T/C [9] of the same compound?
**A.** 19.6%

**Q.** And the viability, T/C [10]?
**A.** 4.09%

**Q.** What about the viability, T/C [11] of the same compound?
**A.** 2.62%

**Q.** And the viability, T/C [12]?
**A.** 1.16%

**Q.** What about the viability, T/C [13] of the same compound?
**A.** 27.8%

**Q.** And the viability, T/C [14]?
**A.** 25%

**Q.** What about the viability, T/C [15] of the same compound?
**A.** 14.5%

**Q.** What about the viability, T/C [16] of the same compound?
**A.** 4.53%

**Q.** What about the viability, T/C [17] of the same compound?
**A.** 2.76%

**Q.** What about the viability, T/C [18] of the same compound?
**A.** 1.6%

**Q.** What about the viability, T/C [19] of the same compound?
**A.** 25.2%

**Q.** What about the viability, T/C [20] of the same compound?
**A.** 18.5%

**Q.** What about the viability, T/C [21] of the same compound?
**A.** 9.38%

**Q.** And the viability, T/C [22]?
**A.** 1.17%

**Q.** What about the viability, T/C [23] of the same compound?
**A.** 0.61%

**Q.** And the viability, T/C [24]?
**A.** 0.81%

**Q.** What about the viability, T/C [25] of the same compound?
**A.** 26.2%

**Q.** What about the viability, T/C [26] of the same compound?
**A.** 17.2%

**Q.** And the viability, T/C [27]?
**A.** 4.87%

**Q.** And the viability, T/C [28]?
**A.** 0.94%

**Q.** What about the viability, T/C [29] of the same compound?
**A.** 1.27%

**Q.** And the viability, T/C [30]?
**A.** 0.57%

**Q.** And the viability, T/C [31]?
**A.** 25.1%

**Q.** And the viability, T/C [32]?
**A.** 20.3%

**Q.** And the viability, T/C [33]?
**A.** 3.72%

**Q.** What about the viability, T/C [34] of the same compound?
**A.** 0.69%

**Q.** And the viability, T/C [35]?
**A.** 1.84%

**Q.** What about the viability, T/C [36] of the same compound?
**A.** 0.97%
